The text below walks through data of paper PMC3338766 (2012).

Assay [1] deals with d(T2G8) (DNA, G4) GGGGTTGGGG
In words: ESI-MS, relative binding affinity. Conditions: 50 mM ammonium acetate; residual K+; 10 nM quadruplex and ligand, 10% methanol; intensity-derived index, not a constant.

Assay [2] deals with d(T2G8) (DNA, G4) GGGGTTGGGG
Kind of assay: SYBR Green fluorescence melting. The note with it: K+ (100 mM KCl, 30 mM potassium phosphate), 5 µM quadruplex, 1× SYBR Green, ligand concentration not stated.

For assay [3], the system named is d(T2G8) (DNA, G4) GGGGTTGGGG
Kind of assay: ITC. The note with it: K+ (100 mM KCl, 30 mM potassium phosphate); pH 7.0, 25 °C; two-sites model; site 1 of 2.

Assay [4] relates to d(T2G8) (DNA, G4) GGGGTTGGGG
In words: UV-Vis titration (soret shift 424–434 nm, 38.2% hypochromicity). Conditions: K+ (100 mM KCl, 30 mM potassium phosphate); 5 µM TMPyP4, 25 °C.

As to `COc1cc2c(cc1OCCCC(=O)Nc1ccc3ccc4cccc5ccc1c3c45)N=C[C@@H]1CCCN1C2=O`, the IRa in assay [1] amounted to 0.45. For the same compound, the Tm in assay [2] (Tm 43 to 36 °C, derived from two Tm) is -7 °C. The K1 in assay [3] is on record as 0.0597 (±0.01) × 10^8.

`COc1cc2c(cc1OCCCCCOc1cc3c(cc1OC)C(=O)N1CCC[C@H]1C(=O)N3)N=C[C@@H]1CCCN1C2=O` displayed an IRa in assay [1] of 0.67. In addition, the Tm in assay [2] (Tm 43 to 49 °C) was ~ 6 °C. In assay [3], the K1 is 0.0875 (±0.03) × 10^8.

On to `C[n+]1ccc(-c2c3nc(c(-c4cc[n+](C)cc4)c4ccc([nH]4)c(-c4cc[n+](C)cc4)c4nc(c(-c5cc[n+](C)cc5)c5ccc2[nH]5)C=C4)C=C3)cc1`, for which, in assay [1], the IRa is 0.18. In addition, the binding result in assay [4] is “yes”.
